Measured values reported in paper PMC6120190, “Identification of two distinct peptide-binding pockets in the SH3 domain of human mixed-lineage kinase 3” (The Journal of Biological Chemistry, 2018).
No end group written: not given here. *: point of attachment. Biotin = O=C1N[C@H]2[C@H](CS[C@H]2CCCCC(=O)*)N1

Key:
GST-MLK4 SH3 [1] = test: specificity ELISA, MLK4; type: binding, human; conditions: biotinylated peptide ≈2 μM on NeutrAvidin; GST-SH3 0.15 μM, 1–1.5 h; anti-GST-HRP; triplicate (Fig. 8)
Method: (§1) Figure 8. Binding of MIP and NS5A peptides to SH3 domain of other members of MLK subfamily (MLK1–4). To determine whether MIP and NS5A can interact with SH3 domains of MLK1–4 proteins, the purified GST-MLK1–4 SH3 domains were incubated with biotinylated peptides, NS5A peptide ([…]-GGG-K-biotin), MIP ([…]-K-biotin), and MIP-R12A ([…]-K-biotin), immobilized on a NeutrAvidin-coated 96-well ELISA plate. Binding of SH3 domain was detected with anti-GST antibody conjugated to HRP. […] See also Fig. S6.
(§2) Two plasmids, gifts from Dr. Gerardo Morfini, University of Illinois at Chicago, encoding a GST protein fused to either the WT or mutant Y52A of the SH3 domain of MLK3 (UniProt entry Q16584; aa 43–104), respectively, between BamHI and EcoRI sites, were transformed into the Escherichia coli strain Rosetta(DE3)pLysS. DNA fragments encoding the SH3 domain of MLK1 (UniProt entry P80192; aa 52–116), MLK2 (UniProt entry Q02779; aa 16–81), and MLK4 (UniProt entry Q5TCX8; aa 38–102) were commercially prepared as gBlocks® Gene Fragments (Integrated DNA Technologies, Inc.). All coding regions were codon-optimized for E. coli expression. DNA fragments were cleaved with BamHI-HF® and EcoRI-HF® (New England Biolabs) and subsequently ligated into pGex-2T vector. […]

GST-MLK1 SH3 [2] = test: specificity ELISA, MLK1; type: binding, human; conditions: biotinylated peptide ≈2 μM on NeutrAvidin; GST-SH3 0.15 μM, 1–1.5 h; anti-GST-HRP; triplicate (Fig. 8)
Method: as §1, §2

GST tag = test: binding of MIP to GST tag; conditions: ELISA
Method: After three washes with PBS containing 0.1% Tween 20 (PBST), retention of the SH3 domain fusion protein in wells was detected with an anti-GST antibody conjugated to horseradish peroxidase (HRP) (GE Healthcare; 45 min; 1:5000 in PBST). Following three washes with PBST, the chromogenic substrate solution 2,2-azinobis(3-ethylbenzthiazoline-6-sulfonic acid) (ABTS; Pierce); 10 ml of 50 mM sodium citrate, pH 4.0; and 100 μl of 3% H2O2 were added to the plate (100 μl/well). The absorbance was measured at 405 nm with a POLARstar OPTIMA microtiter plate reader (BMG Labtech).

GST-MLK3 SH3 [3] = test: specificity ELISA, MLK3; type: binding, human; conditions: biotinylated peptide ≈2 μM on NeutrAvidin; GST-SH3 0.15 μM, 1–1.5 h; anti-GST-HRP; triplicate (Fig. 8)
Method: as §1, §2

MLK3 SH3 domain Y52A = test: binding to Y52A mutant of MLK3 SH3; parameters: species or system human; conditions: data not shown
Excerpt: Two plasmids, gifts from Dr. Gerardo Morfini, University of Illinois at Chicago, encoding a GST protein fused to either the WT or mutant Y52A of the SH3 domain of MLK3 (UniProt entry Q16584; aa 43–104), respectively, between BamHI and EcoRI sites, were transformed into the Escherichia coli strain Rosetta(DE3)pLysS. DNA fragments encoding the SH3 domain of MLK1 (UniProt entry P80192; aa 52–116), MLK2 (UniProt entry Q02779; aa 16–81), and MLK4 (UniProt entry Q5TCX8; aa 38–102) were commercially prepared as gBlocks® Gene Fragments (Integrated DNA Technologies, Inc.). All coding regions were codon-optimized for E. coli expression. DNA fragments were cleaved with BamHI-HF® and EcoRI-HF® (New England Biolabs) and subsequently ligated into pGex-2T vector. The resulting DNA constructs, pGex-MLK1 SH3, pGex-MLK2 SH3, and pGex-MLK4 SH3 (verified by sequencing) were transformed into E. coli strain BL21(DE3).

GST-MLK2 SH3 [4] = test: specificity ELISA, MLK2; type: binding, human; conditions: biotinylated peptide ≈2 μM on NeutrAvidin; GST-SH3 0.15 μM, 1–1.5 h; anti-GST-HRP; triplicate (Fig. 8)
Method: as §1, §2

GST fusion partner = test: phage ELISA of phage-displayed MIP on GST fusion partner; type: binding; conditions: duplicate (Fig. 1)
Method: (§3) Figure 1. […] The presence of virions in the supernatant was determined by coating the wells of the microtiter plate with an anti-M13 mAb (anti-M13 Ab). Virions, which were retained in the microtiter plate wells, were detected with anti-M13 mAb conjugated to HRP. […] See also Fig. S1.
Screens for peptide ligands were performed following a protocol published previously ([11]). The purified target protein, GST-MLK3 SH3-WT, was prebound to GSH magnetic beads (Pierce, catalogue number 88821), and nonspecific binding sites were blocked with phosphate-buffered saline (PBS; 137 mM NaCl, 3 mM KCl, 8 mM Na2HPO4, 1.5 mM KH2PO4) containing 3% (w/v) bovine serum albumin (BSA). […] After three rounds of affinity selection, individual phage clones were isolated, and their binding was evaluated via phage ELISA ([11]). Positive clones were then sequenced.

GST-MLK3 SH3 [5] = test: phage ELISA of phage-displayed MIP and variants on GST-MLK3 SH3; type: binding, human; conditions: original clone/MIP, anti-M13 mAb-HRP detection, experiments in duplicate, averaged
Method: as §3
Figure 2. […] The MIP sequence, NH2-[…]-COOH, was fused to the N terminus of the pIII capsid protein of bacteriophage M13 ([51]) to facilitate type 3 pentavalent display. Systematic alanine replacements in the peptide were generated by Kunkel mutagenesis ([11]); Ala-1 and Ala-14 were replaced with Val. […] The signal for binding of MIP (WT) to GST-MLK3 SH3 is set as 100%, and other values are normalized to it. […] See also Fig. S2.
Screens for peptide ligands were performed following a protocol published previously ([11]). […] After three rounds of affinity selection, individual phage clones were isolated, and their binding was evaluated via phage ELISA ([11]). […]
All constructs were generated via Kunkel mutagenesis ([11], [57], [58]) and facilitated type 3 (pentavalent) display. […] All constructs were verified by DNA sequencing, and phage clones were evaluated for their binding to the target (GST-MLK3 SH3) via phage ELISA ([11]). […]

SH3 domain of MLK3 = conditions: cited from earlier work
Excerpt: Mixed-lineage protein kinase 3 (MLK3) is widely expressed in a variety of normal and cancerous tissues, such as brain, lung, liver, heart, breast, kidney, pancreas, and skeletal muscle ([34][–][36]). MLK3, also known as MAP3K11, is a serine/threonine protein kinase involved in regulating the JNK, p38, and ERK pathways ([37][–][42]). It is composed of several modules: an SH3 domain, a kinase domain, tandem leucine zippers, a Cdc42/Rac interactive binding (CRIB) motif, several linker regions, and a proline-rich C-terminal tail ([39], [43]). According to the BioGRID interaction database ([44]), M ...

GST-MLK3 SH3(43–104) [6] = target: T1, GST-MLK3 SH3(43–104) (human, UniProt Q16584 43-104); test: ELISA; conditions: both partners purified
T1 construct: also called GST-MLK3 SH3-WT; SH3 WT
T1 sequence (looked up): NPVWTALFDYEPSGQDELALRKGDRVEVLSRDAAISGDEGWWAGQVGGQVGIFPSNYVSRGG

GST-MLK3 SH3(43–104) [7] = target: T1, GST-MLK3 SH3(43–104); test: ELISA; competition ELISA: GST-MLK3 SH3 (5 μg/ml) preincubated 1–1.5 h with ≈0.01–100 μM unlabeled competitor peptide, then 45 min on biotinylated MIP (≈2 μM) captured via NeutrAvidin; anti-GST-HRP detection; GST tag tested as a control; conditions: both partners purified
GST-MLK4 SH3 [8] = target: T2, GST-MLK4 SH3 (UniProt Q5TCX8 38-102); test: ELISA; conditions: both partners purified
T2 construct: also called SH3 domain of MLK4
T2 sequence (looked up): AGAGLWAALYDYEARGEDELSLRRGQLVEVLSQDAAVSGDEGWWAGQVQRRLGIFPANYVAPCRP

GST-MLK1 SH3 [9] = target: T3, GST-MLK1 SH3 (UniProt P80192 52-116); test: ELISA; conditions: both partners purified
T3 construct: also called SH3 domain of MLK1
T3 sequence (looked up): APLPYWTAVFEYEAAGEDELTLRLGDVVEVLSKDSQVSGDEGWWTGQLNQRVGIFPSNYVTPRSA

GST-MLK2 SH3 [10] = target: T4, GST-MLK2 SH3 (UniProt Q02779 16-81); test: ELISA; conditions: both partners purified
T4 construct: also called SH3 domain of MLK2
T4 sequence (looked up): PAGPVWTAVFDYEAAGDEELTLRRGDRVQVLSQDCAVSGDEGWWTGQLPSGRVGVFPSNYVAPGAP

SEC = target: the molecule itself; test: SEC

CC[C@H](C)[C@H](NC(=O)[C@H](C)N)C(=O)N[C@@H](CCCNC(=N)N)C(=O)N[C@H](C(=O)N[C@@H](CC(N)=O)C(=O)N1CCC[C@H]1C(=O)N[C@@H](CC(N)=O)C(=O)NCC(=O)N[C@H](C(=O)N[C@@H](Cc1c[nH]c2ccccc12)C(=O)N[C@@H](CO)C(=O)N[C@@H](CCCNC(=N)N)C(=O)N[C@@H](CCC(N)=O)C(=O)N[C@@H](C)C(=O)N[C@@H](CCC(=O)O)C(=O)N[C@H](C(=O)N[C@H](C(=O)N[C@@H](CCC(=O)O)C(=O)N[C@@H](CO)C(=O)O)C(C)C)[C@@H](C)O)[C@@H](C)O)[C@@H](C)CC [MIP]
binding to MLK4 SH3 (GST-MLK4 SH3 [1]): bound
binding to MLK1 SH3 (GST-MLK1 SH3 [2]): bound
interaction with GST tag (GST tag): no interactions
binding to MLK3 SH3 (GST-MLK3 SH3 [3]): bound
effect of SH3 mutation Y52A on peptide binding (MLK3 SH3 domain Y52A): disrupts binding
binding to MLK2 SH3 (GST-MLK2 SH3 [4]): did not bind

NH2-AIRINPNGTWSRQAETVES-COOH [phage-displayed MIP, MIP fused to the N terminus of the pIII capsid protein of bacteriophage M13]
binding to GST fusion partner in phage ELISA (GST fusion partner): not the GST fusion partner
binding to GST-MLK3 SH3 in phage ELISA (GST-MLK3 SH3 [5]): bind to the WT form of the MLK3 SH3 domain

HCV NS5A: hepatitis C virus nonstructural 5A protein
interaction with SH3 domain of MLK3 (SH3 domain of MLK3): interact with the SH3 domain of MLK3 via a PXXPXR motif

B1: unlabeled MIP (synthetic) (peptide)
peptide: AIRINPNGTWSRQAETVES
notes: also called MIP(1–19); soluble MIP peptide; source: synthetic peptide
IC50 (GST-MLK3 SH3(43–104) [6]): 6.6 ± 1.6 µM
IC50 (GST-MLK3 SH3(43–104) [7]): 15.8 ± 0.4 µM

B2: biotinylated NS5A peptide ([…]-GGG-K-biotin) (peptide)
peptide: KKAPTPPPRRRRGGGK(Biotin)
notes: also called immobilized NS5A; source: synthetic peptide
binding result (GST-MLK4 SH3 [8]): binds
binding result (GST-MLK1 SH3 [9]): binds
binding result (GST-MLK2 SH3 [10]): binds
binding result (GST-MLK3 SH3(43–104) [6]): binds

B3: MLK3 SH3(41–105)-MIP(1–13) fusion protein (other, human)
chain: YANPVWTALFDYEPSGQDELALRKGDRVEVLSRDAAISGDEGWWAGQVGGQVGIFPSNYVSRGGGAIRINPNGTWSRQ
notes: also called the WT construct
binding result (SEC): binds
